Where a name gives a salt, the structure may show the parent alone.
What was measured:
5-HT3 receptor [1] = target: T1, 5-HT3 receptor (Cavia porcellus, UniProt O70212); test: 5-HT3 receptor agonistic activity: contractile response of isolated guinea pig distal colon strips; assay type: cell-based; conditions: read-out: Max. response
T1 construct: Distal colons were excised from male Hartley guinea pigs; from tissue; host or cells: distal colon strips of male Hartley guinea pigs
T1 sequence (O70212 20-490): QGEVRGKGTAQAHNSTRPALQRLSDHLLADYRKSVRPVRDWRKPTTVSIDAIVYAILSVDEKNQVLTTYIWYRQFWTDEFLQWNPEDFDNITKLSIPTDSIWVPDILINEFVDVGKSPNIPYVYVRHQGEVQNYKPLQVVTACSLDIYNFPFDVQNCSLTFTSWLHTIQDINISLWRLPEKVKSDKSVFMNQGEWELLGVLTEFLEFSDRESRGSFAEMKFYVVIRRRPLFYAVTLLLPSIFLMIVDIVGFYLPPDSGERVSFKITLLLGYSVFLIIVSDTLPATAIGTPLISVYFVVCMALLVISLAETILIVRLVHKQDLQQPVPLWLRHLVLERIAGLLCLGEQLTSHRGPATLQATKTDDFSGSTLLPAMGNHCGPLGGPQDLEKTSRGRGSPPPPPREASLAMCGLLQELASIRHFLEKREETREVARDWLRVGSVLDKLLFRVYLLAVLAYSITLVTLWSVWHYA
Excerpt: Distal colons were excised from male Hartley guinea pigs (500 to 800 g) to prepare strips of about 20 mm.
Each strip was longitudinally suspended in a Magnus tube, and contractile response was isometrically measured.

ICR male mice = test: Toxicity after i.v. administration to ICR male mice; assay type: in vivo; conditions: 100 mg/kg i.v., 8 to 9 weeks of age, n=5 to 6
Excerpt: Being low in toxicity, the compounds of the present invention are suitable for use as medicines.

5-HT3 receptor [2] = test: Receptor binding experiment

| Compound | Emax (5-HT3 receptor [1]) | side effects (ICR male mice) | affinity for the 5-HT3 receptor (5-HT3 receptor [2]) |
| --- | --- | --- | --- |
| Cn1cncc1Cc1nc2c(s1)Cc1ccccc1-2 [Example 15, 2-[(1-Methyl-5-imidazolyl)methyl]-8H-indeno[1,2-d]thiazole] | 42.6% |  |  |
| O=C(O)/C=C/C(=O)O.c1ccc2c(c1)CCc1sc(Cc3c[nH]cn3)nc1-2 [Example 3, 2-(4-Imidazolylmethyl)-4,5-dihydronaphtho[1,2-d]thiazole fumarate] | 80.3% | do not cause serious grave side effects |  |
| c1ccc2c(c1)Cc1sc(Cc3c[nH]cn3)nc1-2 [Example 1, 2-(4-imidazolylmethyl)-8H-indeno[1,2-d]thiazole] | 89.9% | do not cause serious grave side effects | high affinity |
| c1ccc2c(c1)Cc1sc(Cn3ccnc3)nc1-2 [Example 10, 2-(1-Imidazolylmethyl)-8H-indeno[1,2-d]thiazole fumarate] | 60.9% |  |  |
| c1ccc2c(c1)CCCc1sc(Cc3c[nH]cn3)nc1-2 [Example 4, 2-(4-Imidazolylmethyl)-5,6-dihydro-4H-benzo[6,7]-cyclohepto[1,2-d]thiazole fumarate] | 50% |  |  |
| c1ccc2c(c1)ccc1sc(Cn3ccnc3)nc12 [Example 30, 2-(1-imidazolylmethyl)naphtho[1,2-d]thiazole] | 78.2% |  |  |
